# From patent publication US8519136B2, “Aminopyridine derivatives having aurora a selective inhibitory action” (MSD K.K., priority 2008, dated 2013)
# Structures can show the parent of a compound that is named as a salt.
# Columns and labels:
# [1] = test system: Human cervical cancer cells (HeLa S3); test: Cell growth inhibitory effect, WST-8 method; assay type: cell-based; conditions: 72 h, HeLa S3, three days incubation, read-out: Cell growth inhibitory effect (HeLaS3) (IC50)
# Protocol: Fetal calf serum (FCS) was purchased from Moregate Biotech, and DMEM medium was purchased from Invitrogen Corp. WST-8 was purchased from Kishida Chemical Co., Ltd.
# (§1) Human cervical cancer cells (HeLa S3) were obtained from the American Type Culture Collection (ATCC).
# Cells were suspended in a DMEM medium containing 10% FCS, and the cell suspension was dispensed to a 96-well plastic plate at a rate of 750 cells/100 microliters per well. The plate was incubated overnight in 5% CO2-95% air at 37° C. A drug was subjected to graded dilution in dimethylsulfoxide and further diluted with a DMEM medium containing 10% FCS. Then, the dilution was dispensed to the plate on which cells had been disseminated, at a rate of 100 microliters per well. The plate was incubated for further three days in 5% CO2-95% air at 37° C. Cell growth after incubation was measured by the WST-8 method (H. Tominaga, et al., Anal. Commun., 36, 47-50 (1999)). Here, the WST-8 method refers to a method in which 20 microliters of a WST-8 reagent solution is added to each well, incubation is conducted at 37° C. for 60 minutes, the plate is stirred, and the amount of formazan produced is measured by a colorimetric method to determine the inhibitory rate of the drug. The concentration for 50% growth inhibition (IC50, μM) of the compound was determined.
# [2] = target: T1, His-tagged human Aurora A (Homo sapiens, UniProt O14965); test: Aurora A inhibitory activity (IMAP fluorescence polarization); assay type: biochemical; conditions: 20 μM ATP, 30° C., 120 minutes
# T1 construct: His (N); made in house; host or cells: Escherichia coli BL21-CodonPlus(DE3)-RIL
# T1 sequence (O14965 1-403): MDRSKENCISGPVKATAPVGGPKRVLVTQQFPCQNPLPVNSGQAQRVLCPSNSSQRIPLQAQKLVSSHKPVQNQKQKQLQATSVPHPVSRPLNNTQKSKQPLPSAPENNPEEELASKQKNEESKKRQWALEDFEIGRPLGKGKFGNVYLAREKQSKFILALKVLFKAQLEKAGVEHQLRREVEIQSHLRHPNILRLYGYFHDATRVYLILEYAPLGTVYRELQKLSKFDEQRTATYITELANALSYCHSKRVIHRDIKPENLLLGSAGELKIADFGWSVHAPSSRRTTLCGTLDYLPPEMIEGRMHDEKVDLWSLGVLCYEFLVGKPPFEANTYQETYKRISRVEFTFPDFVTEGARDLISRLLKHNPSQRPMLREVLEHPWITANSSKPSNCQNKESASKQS
# Description: cDNA of N-terminal His-tagged human Aurora A was integrated into an expression vector, which was then highly expressed in Escherichia coli BL21-CodonPlus(DE3)-RIL cells. The Escherichia coli was harvested and lysed, and then the His-tagged human Aurora A protein was applied onto a nickel chelate column and eluted from the column with imidazole. The active fractions were desalted with a desalting column to give a purified enzyme.
# For measurement of the activity of Aurora A, the substrate used was a synthetic peptide (5-FAM (5-carboxyfluorescein)-γ-aminobutyric acid-Ala-Leu-Arg-Arg-Ala-Ser-Leu-Gly-NH2) (SEQ.ID.NO.: 1), which was purchased from Toray Research Center, Inc.
# For the phosphorylation reaction, the method by Upstate, Inc. [Kinase Profiler™ Assay Protocols] was referred to, and phosphorylation of the substrate was detected using IMAP® technology (Molecular Devices, Co. Ltd.) (Gaudet E W. et. al, J. Biomol. Screen, 8, 164-175 (2003)). Concretely, the phosphorylation reaction and the detection were carried out as follows:
# The phosphorylation reaction was conducted using 384 well plate, and the reaction volume was 10 μl/well. The reaction buffer is comprised of 50 mM Tris-chloride buffer (pH 7.4), 15 mM magnesium acetate, and 0.2 mM ethylenediamine-N,N,N′,N′-tetraacetic acid (EDTA). Thereto, the purified Aurora A protein, 100 nM of the peptide substrate, and 20 μM of adenosine 5′-triphosphate (ATP) were added, and then the reaction was carried out at 30° C. for 120 minutes.
# Thereafter, in order to terminate and detect the reaction, 30 μl of the IMAP (registered trademark) binding reagent (IMAP Progressive Binding Reagent, R7284) that had been diluted (1:400) in the 1×IMAP binding buffer A (IMAP Progressive Binding Buffer A, 5× stock, R7282) was added to each well. The solution stood still for 60 minutes in the dark, and then fluorescence polarization was measured using a high-end microplate reader (excitation wavelength: 485 nm; emission wavelength: 520 nm).
# The compound to be tested was added to the reaction system such that a dilution series of the compound in dimethylsulfoxide (DMSO) was prepared, and then 0.5 μL of this solution was added for the testing to each well. Each control well was provided by adding 0.5 μL of DMSO to the well in place of the DMSO solution containing the compound to be tested.
# [3] = test system: Human cervical cancer cells (HeLa S3); test: Effect by combined use of drugs in cells (with docetaxel), WST-8 method; assay type: cell-based; conditions: HeLa S3, three days; for inhibition at 0.3 µM: compound 300 nM alone
# Protocol: Fetal calf serum (FCS) was purchased from Moregate Biotech, DMEM medium from Invitrogen Corp., docetaxel (tradename: Taxere) from Sigma-Aldrich, Inc., and WST-8 from Kishida Chemical Co., Ltd.
# as §1
# Cells were suspended in a DMEM medium containing 10% FCS, and the cell suspension was dispensed to two 96-well plastic plates at a rate of 750 cells/100 microliters per well. The plates were incubated overnight in 5% CO2-95% air at 37° C. A drug was subjected to graded dilution in dimethylsulfoxide and further diluted with DMSO or with a DMEM medium containing 10% FCS and also containing 0.6 nM docetaxel. Then, the dilutions were each dispensed to one of the plates on which cells had been disseminated, at a rate of 100 microliters per well. The final concentration of docetaxel at this stage was 0.3 nM. Also, the concentrations in the case of sole administration of the compound according to the invention were 0.003, 0.01, 0.03, 0.1, 0.3, 1, 3 and 10 μM. The plates were incubated for further three days in 5% CO2-95% air at 37° C. Cell growth after incubation was measured by the WST-8 method (H. Tominaga, et al., Anal. Commun., 36, 47-50 (1999)). Here, the WST-8 method refers to a method in which 20 microliters of a WST-8 reagent solution is added to each well, incubation is conducted at 37° C. for 60 minutes, the plate is stirred, and the amount of formazan produced is measured by a colorimetric method to determine the inhibitory rate of the drug. The growth inhibitory effects of docetaxel and of the compound according to the invention were determined, with the value obtained in sole treatment of DMSO being defined as 0%.
# [4] = Homo sapiens, HeLa S3, 72 h, read-out: Cell growth inhibitory effect by sole administration of the compound of Example (%)
# [5] = compound 300 nM + docetaxel 0.3 nM
SMILES,IC50 [1] [nM],IC50 [2] [nM],"inhibition at 0.3 µM [3, 4] [%]","Cell growth inhibitory effect by combined administration of docetaxel and the compound of Example (%) [3, 5] [%]","inhibition at 0.1 µM ([3]; Homo sapiens, HeLa S3, 72 h, compound 100 nM alone, read-out: Cell growth inhibitory effect by sole administration of the compound of Example (%)) [%]",Cell growth inhibitory effect by combined administration of docetaxel and the compound of Example (%) ([3]; compound 100 nM + docetaxel 0.3 nM)
"Cl.O=C(c1cccc(Cl)c1F)N1CCC(O)(Cc2cccc(Nc3cc[nH]n3)n2)CC1 [Example 2, 1-(3-chloro-2-fluorobenzoyl)-4-((6-(1H-pyrazol-3-ylamino)pyridin-2-yl)methyl)piperidin-4-ol hydrochloride]",780,0.91,23.9,90.2,–,–
"O=c1[nH]nc(C2(Cc3cccc(Nc4cc[nH]n4)n3)CCN(S(=O)(=O)c3ccccc3C(F)(F)F)CC2)o1 [Example 14, 5-(4-((6-(1H-pyrazol-3-ylamino)pyridin-2-yl)methyl)-1-((2-(trifluoromethyl)phenyl)sulfonyl)piperidin-4-yl)-1,3,4-oxadiazol-2(3H)-one trifluoroacetate]",1730,0.4,3.3,80.7,–,–
"O=c1[nH]nc(C2(Cc3cccc(Nc4cc[nH]n4)n3)CCN(C(c3cccc(C(F)(F)F)c3)C(F)(F)F)CC2)o1 (stereo not drawn) [Example 19, 5-(4-((6-(1H-pyrazol-3-ylamino)pyridin-2-yl)methyl)-1-(2,2,2-trifluoro-1-(3-(trifluoromethyl)phenyl)ethyl)piperidin-4-yl)-1,3,4-oxadiazol-2(3H)-one trifluoroacetate]",1010,1.27,–,–,7.6,86.0
